Data on three molecules can be found in patent US10501516B2, “Peptide compound” (TAKEDA PHARMACEUTICAL COMPANY LIMITED, priority 2016, dated 2019).

One test addresses T1, human GLP-1R (Homo sapiens, UniProt P43220).
T1 construct: expressed in transfected cells; host or cells: CHO-K1 Cre-luc reporter cells (hGLP-1R/Crel cells)
Kind of test: Reporter assay of human GLP-1R gene (agonist activity, intracellular cAMP as index). The conditions noted are these: Cre-luc reporter, hGLP-1R/Crel cells (CHO-K1), 4 hours. It counts as cell-based. The text has this:
(§1) Evaluation of Agonist Activity Against Human NPY2R, Human GIPR, and Human GLP-1R Using Change in Intracellular cAMP Concentration as Index
The human GLP-1R gene having a sequence identical to the sequence of GenBank Accession No. NM_002062 was cloned into pIRESneo3 vector (Clontech Laboratories, Inc.) to prepare hGLP-1R/pIRESneo3. This vector was introduced to the Cre-luc reporter cells obtained in (1) to obtain transformants. Next, a cell line induced to express luciferase, i.e., hGLP-1R/Crel cells, were selected from the obtained transformants by the addition of human GLP-1(7-37) peptide.
(§2) The hGIPR/CRE-LUC/CHO-K1 cells or the hGLP-1R/Crel cells were inoculated at a cell density of 25 μL/well (5,000 cells/well) to a 384-well white plate (Corning, 3570), and cultured overnight in Ham F12 medium containing 10% fetal bovine serum, 100 U/mL penicillin and 100 μg/mL streptomycin in a CO2 incubator of 37° C. On the next day, a medium containing a test compound was added at a concentration of 5 μL/well to the cells, and the resultant cells were incubated for 4 hours in a CO2 incubator of 37° C. to give the final concentration of 1 μM. SteadyGlo (Promega) was added thereto at a concentration of 30 μL/well, and the mixture was shaken with light shielded. After 30 minutes, the luciferase activity was measured using a plate reader Envision (PerkinElmer). For the GIPR agonist activity, the luciferase activity in the presence of 10 μM GIP was defined as 100%, and the luciferase activity from the addition of DMSO instead of the test compound was defined as 0%. The GIPR agonist activity was calculated with a rise in intracellular cAMP concentration as an index.
For the GLP-1R agonist activity, assay similar to above was conducted using the hGLP-1R/Crel cells. The luciferase activity in the presence of 10 μM GLP-1 was defined as 100%, and the luciferase activity from the addition of DMSO instead of the test compound was defined as 0%. The GLP-1R agonist activity was calculated with a rise in intracellular cAMP concentration as an index.
A general note: In a reporter assay the amount or activity of a reporter protein is the signal.

Another test has as its target T2, human GIPR (Homo sapiens, UniProt P48546).
T2 construct: expressed in transfected cells; host or cells: CHO-K1 Cre-luc reporter cells (hGIPR/CHO-K1, also called hGIPR/CRE-LUC/CHO-K1)
T2 sequence (P48546 22-466): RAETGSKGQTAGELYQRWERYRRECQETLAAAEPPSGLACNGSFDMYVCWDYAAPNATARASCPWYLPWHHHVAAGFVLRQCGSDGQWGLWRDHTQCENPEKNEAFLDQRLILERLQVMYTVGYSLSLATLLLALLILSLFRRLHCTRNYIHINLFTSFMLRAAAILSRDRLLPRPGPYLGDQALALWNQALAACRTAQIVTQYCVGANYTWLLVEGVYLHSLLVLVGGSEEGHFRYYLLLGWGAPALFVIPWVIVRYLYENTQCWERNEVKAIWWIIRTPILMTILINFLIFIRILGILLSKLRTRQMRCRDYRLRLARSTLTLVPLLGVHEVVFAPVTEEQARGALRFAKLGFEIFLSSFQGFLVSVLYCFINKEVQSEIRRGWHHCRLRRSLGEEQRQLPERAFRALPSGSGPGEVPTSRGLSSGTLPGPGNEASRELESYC
Kind of test: Reporter assay of human GIPR gene (agonist activity, intracellular cAMP as index). Format: cell-based. The note with it: Cre-luc reporter, hGIPR/CHO-K1 cells, 4 hours.
From the text: as §1
The human GIPR gene having a sequence identical to the sequence of GenBank Accession No. U39231 was cloned into pMSRα-neo vector to prepare hGIPR/pMSRα-neo. This vector was introduced to the Cre-luc reporter cells obtained in (1) to obtain transformants. Next, a cell line induced to express luciferase, i.e., hGIPR/CHO-K1 cells, were selected from the obtained transformants by the addition of GIP.
as §2

In the next test the test system is male C57BL/6J mouse. The test is described as follows: Evaluation of feeding suppressive action in mice. The conditions noted are these: 30 nmol/kg s.c. once a day for 3 days; 3-days cumulative food consumption vs solvent control. It counts as in vivo. A digest of the protocol: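 Male C57BL/6J mice, 8-9 weeks, ad libitum fed, given compound (30 or 100 nmol/2 mL in 10% DMSO saline) s.c. at 2 mL/kg once daily for 3 days. Cumulative 3-day food consumption measured by weighing; suppression rate (%) calculated relative to vehicle controls.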

Square brackets hold non-standard residues; d marks the D form. Side chains are listed from the residue outwards. Peptide text beside a SMILES is read from it. * marks the point of attachment. Phe(2-F) = N[C@@H](Cc1ccccc1F)C(=O)O; NMeY = CN[C@@H](Cc1ccc(O)cc1)C(=O)O; Palmitoyl = CCCCCCCCCCCCCCCC(=O)*; αMeF = C[C@](N)(Cc1ccccc1)C(=O)O; Iva = CC[C@](C)(N)C(=O)O; Aib = CC(C)(N)C(=O)O

T1 sequence (P43220 24-463): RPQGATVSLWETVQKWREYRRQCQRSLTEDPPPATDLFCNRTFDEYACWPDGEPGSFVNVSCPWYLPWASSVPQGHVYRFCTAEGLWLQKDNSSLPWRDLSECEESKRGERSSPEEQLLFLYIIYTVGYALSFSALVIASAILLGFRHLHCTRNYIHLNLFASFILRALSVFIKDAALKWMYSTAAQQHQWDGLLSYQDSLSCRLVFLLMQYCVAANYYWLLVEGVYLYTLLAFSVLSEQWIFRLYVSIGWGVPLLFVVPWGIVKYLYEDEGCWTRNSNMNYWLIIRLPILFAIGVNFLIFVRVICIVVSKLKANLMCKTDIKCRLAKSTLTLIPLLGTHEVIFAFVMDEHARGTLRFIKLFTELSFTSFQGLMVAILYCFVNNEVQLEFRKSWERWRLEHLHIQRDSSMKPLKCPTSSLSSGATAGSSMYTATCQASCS

On to `CCCCCCCCCCCCCCCC(=O)NCC(=O)NCC(=O)NCC(=O)NCC(=O)NCCCC[C@H](NC(=O)[C@H](CC(=O)O)NC(=O)[C@H](CO)NC(=O)[C@@H](NC(=O)[C@](C)(Cc1ccccc1)NC(=O)[C@@H](NC(=O)CNC(=O)[C@H](CCC(=O)O)NC(=O)C(C)(C)NC(=O)[C@H](Cc1ccc(O)cc1)NC)[C@@H](C)O)[C@@H](C)O)C(=O)NC(C)(C)C(=O)N[C@H](C(=O)NC(C)(C)C(=O)N[C@@H](CC(C)C)C(=O)N[C@@H](CC(=O)O)C(=O)N[C@@H](CCCCN)C(=O)N[C@@H](CCC(N)=O)C(=O)N[C@@H](CCCNC(=N)N)C(=O)N[C@@H](CCC(N)=O)C(=O)N[C@@](C)(CC)C(=O)N[C@@H](CCC(=O)O)C(=O)N[C@@H](Cc1ccccc1)C(=O)N[C@H](C(=O)N[C@@H](CCCNC(=N)N)C(=O)N[C@@H](Cc1c[nH]cn1)C(=O)N[C@@H](CC(C)C)C(=O)N[C@@H](CC(C)C)C(=O)N[C@@H](CC(N)=O)C(=O)N[C@@H](CCCCN)C(=O)NC(C)(C)C(=O)N[C@H](C(=O)N[C@@H](CCCNC(=N)N)C(=O)N[C@@H](CCC(N)=O)C(=O)N[C@@H](CCCNC(=N)N)C(=O)N[C@@H](Cc1ccccc1F)C(N)=O)[C@@H](C)O)C(C)C)[C@@H](C)CC` [Example 5] (H-[NMeY][Aib]EGT[αMeF]TSDK([Gly-Gly-Gly-Gly-Palmitoyl])[Aib]I[Aib]LDKQRQ[Iva]EFVRHLLNK[Aib]TRQR[Phe(2-F)]-NH2), for which the EC50 (usually the midpoint of the concentration-response curve) at human GLP-1R turned out to be 130 pM. Consider `CCCCCCCCCCCCCCCC(=O)NCC(=O)NCC(=O)NCC(=O)NCC(=O)NCCCC[C@H](NC(=O)[C@H](CC(=O)O)NC(=O)[C@H](CO)NC(=O)[C@@H](NC(=O)[C@](C)(Cc1ccccc1)NC(=O)[C@@H](NC(=O)CNC(=O)[C@H](CCC(=O)O)NC(=O)C(C)(C)NC(=O)[C@@H](N)Cc1ccc(O)cc1)[C@@H](C)O)[C@@H](C)O)C(=O)N[C@@H](CO)C(=O)N[C@@H](CCCCN)C(=O)NC(C)(C)C(=O)N[C@@H](CC(C)C)C(=O)N[C@@H](CC(=O)O)C(=O)N[C@@H](CCCCN)C(=O)N[C@@H](CCC(N)=O)C(=O)N[C@@H](CCCNC(=N)N)C(=O)N[C@@H](CCC(N)=O)C(=O)N[C@@](C)(CC)C(=O)N[C@@H](CCC(=O)O)C(=O)N[C@@H](Cc1ccccc1)C(=O)N[C@H](C(=O)N[C@@H](CCCNC(=N)N)C(=O)N[C@@H](Cc1c[nH]cn1)C(=O)N[C@@H](CC(C)C)C(=O)N[C@@H](CC(C)C)C(=O)N[C@@H](CC(N)=O)C(=O)N[C@@H](CCCCN)C(=O)NC(C)(C)C(=O)N[C@H](C(=O)N[C@@H](CCCNC(=N)N)C(=O)N[C@@H](CCC(N)=O)C(=O)N[C@@H](CCCNC(=N)N)C(=O)N[C@@H](Cc1ccc(O)cc1)C(N)=O)[C@@H](C)O)C(C)C` [Example 23] (H-Y[Aib]EGT[αMeF]TSDK([Gly-Gly-Gly-Gly-Palmitoyl])SK[Aib]LDKQRQ[Iva]EFVRHLLNK[Aib]TRQRY-NH2), for which the results for the 50% effective concentration (EC50) on human GLP-1R and on human GIPR were 130 pM and 91 pM, respectively. Regarding `CCCCCCCCCCCCCCCC(=O)NCC(=O)NCC(=O)NCC(=O)NCC(=O)NCCCC[C@H](NC(=O)[C@H](CC(=O)O)NC(=O)[C@H](CO)NC(=O)[C@@H](NC(=O)[C@](C)(Cc1ccccc1)NC(=O)[C@@H](NC(=O)CNC(=O)[C@H](CCC(=O)O)NC(=O)C(C)(C)NC(=O)[C@H](Cc1ccc(O)cc1)NC)[C@@H](C)O)[C@@H](C)O)C(=O)NC(C)(C)C(=O)N[C@H](C(=O)NC(C)(C)C(=O)N[C@@H](CC(C)C)C(=O)N[C@@H](CCC(=O)O)C(=O)N[C@@H](CCCCN)C(=O)N[C@@H](CCC(N)=O)C(=O)N[C@@H](CCCNC(=N)N)C(=O)N[C@@H](CCC(N)=O)C(=O)N[C@@](C)(CC)C(=O)N[C@@H](CCC(=O)O)C(=O)N[C@@H](Cc1ccccc1)C(=O)N[C@H](C(=O)N[C@@H](CCCNC(=N)N)C(=O)N[C@@H](Cc1c[nH]cn1)C(=O)N[C@@H](CC(C)C)C(=O)N[C@@H](CC(C)C)C(=O)N[C@@H](CC(N)=O)C(=O)N[C@@H](CCCCN)C(=O)NC(C)(C)C(=O)N[C@H](C(=O)N[C@@H](CCCNC(=N)N)C(=O)N[C@@H](CCC(N)=O)C(=O)N[C@@H](CCCNC(=N)N)C(=O)N[C@@H](Cc1ccc(O)cc1)C(N)=O)[C@@H](C)O)C(C)C)[C@@H](C)CC` [Example 33] (H-[NMeY][Aib]EGT[αMeF]TSDK([Gly-Gly-Gly-Gly-Palmitoyl])[Aib]I[Aib]LEKQRQ[Iva]EFVRHLLNK[Aib]TRQRY-NH2), on human GLP-1R, the concentration giving a half-maximal response (EC50) came out at 130 pM. Also, in the test on male C57BL/6J mouse, the “Rate of feeding suppression (%)” value is reported as −58.4%.
